Data reported in patent publication US11572590B2, “Methods for evaluating tumor cell spheroids using 3D microfluidic cell culture device” (Dana-Farber Cancer Institute, Inc., priority 2017, dated 2023).
Read-outs that look alike come from different tables or passages of the source.

Tests used:
[1] = molecular target: T1, off-target kinases (Homo sapiens, UniProt P35626); assay: SelectScreen Kinase Profiling, single point inhibition and IC50 for off-target kinases; type: biochemical; settings: ADRBK2 (GRK3), ZLYTE, ATP Km app
T1 sequence (P35626 1-688): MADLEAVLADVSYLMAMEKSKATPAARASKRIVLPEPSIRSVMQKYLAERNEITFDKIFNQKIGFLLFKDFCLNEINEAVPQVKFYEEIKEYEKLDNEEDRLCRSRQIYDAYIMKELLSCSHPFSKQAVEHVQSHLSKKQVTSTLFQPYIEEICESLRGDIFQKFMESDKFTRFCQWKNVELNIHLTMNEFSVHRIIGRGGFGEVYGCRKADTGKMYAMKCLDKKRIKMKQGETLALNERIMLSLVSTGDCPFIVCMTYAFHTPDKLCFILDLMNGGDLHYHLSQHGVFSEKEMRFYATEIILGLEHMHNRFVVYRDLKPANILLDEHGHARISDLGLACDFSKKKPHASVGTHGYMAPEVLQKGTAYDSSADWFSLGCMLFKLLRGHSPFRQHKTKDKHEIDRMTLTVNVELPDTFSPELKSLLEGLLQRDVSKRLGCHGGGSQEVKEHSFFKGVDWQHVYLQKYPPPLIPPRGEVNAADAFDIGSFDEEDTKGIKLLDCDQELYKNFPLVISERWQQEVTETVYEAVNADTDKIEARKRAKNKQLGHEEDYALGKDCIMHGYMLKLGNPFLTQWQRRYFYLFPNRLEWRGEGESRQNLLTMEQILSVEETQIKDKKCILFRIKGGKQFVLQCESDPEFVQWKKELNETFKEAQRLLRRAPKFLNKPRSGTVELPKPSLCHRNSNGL

[2] = molecular target: T2, off-target kinases (Homo sapiens, UniProt Q9UL54); assay: as above; type: biochemical; settings: TAOK2 (TAO1), ZLYTE, ATP Km app
T2 sequence (Q9UL54 1-1235): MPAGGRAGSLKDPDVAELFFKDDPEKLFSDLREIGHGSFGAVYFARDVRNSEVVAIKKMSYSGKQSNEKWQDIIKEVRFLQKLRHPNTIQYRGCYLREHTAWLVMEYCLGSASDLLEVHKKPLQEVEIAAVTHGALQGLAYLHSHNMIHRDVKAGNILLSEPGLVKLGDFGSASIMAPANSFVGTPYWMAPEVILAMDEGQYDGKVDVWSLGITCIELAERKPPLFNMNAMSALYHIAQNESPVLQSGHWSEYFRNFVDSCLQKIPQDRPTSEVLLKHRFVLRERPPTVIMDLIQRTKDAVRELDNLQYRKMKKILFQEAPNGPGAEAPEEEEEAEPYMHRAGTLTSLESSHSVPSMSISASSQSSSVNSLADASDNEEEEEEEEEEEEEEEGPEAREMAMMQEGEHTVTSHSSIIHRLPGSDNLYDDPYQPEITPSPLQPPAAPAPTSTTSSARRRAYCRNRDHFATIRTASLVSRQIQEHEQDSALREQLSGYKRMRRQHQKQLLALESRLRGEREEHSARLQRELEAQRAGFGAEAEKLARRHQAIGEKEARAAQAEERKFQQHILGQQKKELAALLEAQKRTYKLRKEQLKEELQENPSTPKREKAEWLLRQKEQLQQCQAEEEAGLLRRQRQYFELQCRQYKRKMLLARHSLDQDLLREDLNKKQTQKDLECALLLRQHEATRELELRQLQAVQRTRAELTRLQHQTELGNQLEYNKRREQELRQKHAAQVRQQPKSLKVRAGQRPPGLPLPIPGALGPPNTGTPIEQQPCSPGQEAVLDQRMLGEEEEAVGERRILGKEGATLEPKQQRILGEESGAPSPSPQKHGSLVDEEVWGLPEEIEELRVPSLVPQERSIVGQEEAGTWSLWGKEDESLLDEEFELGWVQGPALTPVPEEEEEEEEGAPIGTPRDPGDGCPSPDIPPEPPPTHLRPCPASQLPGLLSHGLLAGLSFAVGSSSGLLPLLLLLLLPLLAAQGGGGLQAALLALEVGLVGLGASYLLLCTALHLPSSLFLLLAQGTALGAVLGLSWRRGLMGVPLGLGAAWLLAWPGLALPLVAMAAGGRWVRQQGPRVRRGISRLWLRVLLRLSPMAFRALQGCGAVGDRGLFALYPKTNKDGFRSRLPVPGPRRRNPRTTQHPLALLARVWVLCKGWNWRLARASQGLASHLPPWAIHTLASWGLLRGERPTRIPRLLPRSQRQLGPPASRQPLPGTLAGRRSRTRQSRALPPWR

SMILES: N#Cc1cc(-c2ncnc(Nc3ccc(N4CCN(C5COC5)CC4)cc3)n2)ccc1OC1CCOCC1 [Compound 1, 5-(4-((4-(4-(oxetan-3-yl)piperazin-1-yl)phenyl)amino)-1,3,5-triazin-2-yl)-2-((tetrahydro-2H-pyran-4-yl)oxy)benzonitrile]
- inhibition ([1]; read-out: % Inhibition 1): 6%
- inhibition ([1]; read-out: % Inhibition 2): 4%
- inhibition ([1]; read-out: % Inhibition Avg): 5%
- inhibition ([2]; read-out: % Inhibition 1): 3%
- inhibition ([2]; read-out: % Inhibition 2): 6%
- inhibition ([2]; read-out: % Inhibition Avg): 5%
